In ChEMBL document CHEMBL1132612, “Melatonergic properties of the (+)- and (-)-enantiomers of N-(4-methoxy-2,3-dihydro-1H-phenalen-2-yl)amide derivatives” (J Med Chem, 1999) one finds EC50, Ki and Activity data, which are given here for eleven compounds.

The target of test [1] is Melatonin receptor (Xenopus laevis). Briefly: Functional activity against melatonin receptor in lightening Xenopus laevis tadpole skin.
Test [2] deals with Melatonin receptor (Gallus gallus, UniProt P49288+P51050+P49285). Kind of test: Inhibition of 2-[125I]- iodomelatonin from chicken brain melatonin receptors.
Test [3] concerns Melatonin receptor (Xenopus laevis). Briefly: Percent maximum effect relative to melatonin (100%).
For test [4], the target named is Melatonin receptor (Xenopus laevis). Briefly: The functional activity on melatonin receptor was evaluated by its potency to lighten the skin of Xenopus laevis tadpoles.

Usually EC50 stands for the midpoint of the concentration-response curve. Low values mean a more potent agent, high ones a less potent agent. Usually Ki stands for the equilibrium dissociation constant of an inhibitor or competing ligand from its target. With `COc1ccc2cccc3c2c1C[C@@H](NC(C)=O)C3`, the EC50 in test [1] is reported as above 1000 nM. The compound further returned a Ki in test [2] of 38.3 nM. Besides, in test [3], the Activity was 0%.
The compound `O=C(NCCc1cccc2ccccc12)C1CCC1` had an EC50 in test [1] above 1000 nM. This compound also had a Ki in test [2] of 787 nM.
For the compound `CCC(=O)N[C@H]1Cc2cccc3ccc(OC)c(c23)C1`, the Ki in test [2] worked out at 9 nM.
For `CCCC(=O)N[C@@H]1Cc2cccc3ccc(OC)c(c23)C1`, the Ki in test [2] stood at 10 nM.
`COc1ccc2ccc(OC)c(CCNC(C)=O)c2c1`: the EC50 in test [1] was determined as 0.037 nM. This compound also yielded an Activity in test [3] of 100%.
In the case of `COc1ccc2cccc3c2c1CC(NC(C)=O)C3` (racemic), the EC50 in test [1] is given as above 1000 nM. Further, the Ki in test [2] was 36.5 nM. In test [3], this compound returned an Activity of 0%.
Compound `COc1ccc2cccc3c2c1C[C@H](NC(C)=O)C3` gave an EC50 in test [1] above 1000 nM. The same compound registered an inhibition constant (Ki) in test [2] of 28.7 nM. Further, the Activity in test [3] was 0%.
In the case of `CCC(=O)NC1Cc2cccc3ccc(OC)c(c23)C1` (racemic), the EC50 in test [1] is given as above 1000 nM. In test [2], the Ki turned out to be 8.6 nM. Besides, in test [3], the Activity came to 40%.
Turning to `CCCC(=O)N[C@H]1Cc2cccc3ccc(OC)c(c23)C1`, the Ki in test [2] is 3.2 nM.
`CCCC(=O)NC1Cc2cccc3ccc(OC)c(c23)C1` (racemic) came in with a Ki in test [2] of 1.7 nM. In test [3], the Activity came to 40%. This compound came in with an EC50 in test [4] above 1000 nM.
`CCC(=O)N[C@@H]1Cc2cccc3ccc(OC)c(c23)C1` displayed a Ki in test [2] of 7.6 nM.
